Measured values from PubChem BioAssay AID1919017 (Molecular Pharmacology Branch, DTP, NCI, 2023).
pIC50: −log10 of the molar value.

System: SW1271 complex spheroids with HUVEC/MSC, growth, % test/control
Assay: Anticancer human tumor SW1271 cell line growth inhibition [AhR];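 further: spheroids exposed to agents for 7 days before readout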
Details: for pIC50: curve of first compound; for viability, T/C: stronger effect = lower value
Outline: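 Agents were dosed in half-log steps down from roughly clinical Cmax, or from 10 microM where Cmax was unknown, alone and with AhR antagonists. Read-out: percent test/control growth of tumor spheroids containing HUVEC and MSC stromal cells.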

[1] = second compound 0.1 µM, first compound 0.0316 µM
[2] = second compound 0.1 µM, first compound 0.1 µM
[3] = second compound 0.1 µM, first compound 0.316 µM
[4] = second compound 0.1 µM, first compound 1 µM
[5] = second compound 0.316 µM, first compound 0.0316 µM
[6] = second compound 0.316 µM, first compound 0.1 µM
[7] = second compound 0.316 µM, first compound 0.316 µM
[8] = second compound 0.316 µM, first compound 1 µM
[9] = second compound 1 µM, first compound 0.0316 µM
[10] = second compound 1 µM, first compound 0.1 µM
[11] = second compound 1 µM, first compound 0.316 µM
[12] = second compound 1 µM, first compound 1 µM
[13] = second compound 3.16 µM, first compound 0.0316 µM
[14] = second compound 3.16 µM, first compound 0.1 µM
[15] = second compound 3.16 µM, first compound 0.316 µM
[16] = second compound 3.16 µM, first compound 1 µM
[17] = second compound 10 µM, first compound 0.0316 µM
[18] = second compound 10 µM, first compound 0.1 µM
[19] = second compound 10 µM, first compound 0.316 µM
[20] = second compound 10 µM, first compound 1 µM
[21] = second compound 0.1 µM, first compound 3.16 µM
[22] = second compound 0.1 µM, first compound 10 µM
[23] = second compound 0.316 µM, first compound 3.16 µM
[24] = second compound 0.316 µM, first compound 10 µM
[25] = second compound 1 µM, first compound 3.16 µM
[26] = second compound 1 µM, first compound 10 µM
[27] = second compound 3.16 µM, first compound 3.16 µM
[28] = second compound 3.16 µM, first compound 10 µM
[29] = second compound 10 µM, first compound 3.16 µM
[30] = second compound 10 µM, first compound 10 µM
[31] = second compound 0.1 µM, first compound 0.00949 µM
[32] = second compound 0.1 µM, first compound 0.03 µM
[33] = second compound 0.1 µM, first compound 0.0949 µM
[34] = second compound 0.1 µM, first compound 0.3 µM
[35] = second compound 0.316 µM, first compound 0.00949 µM
[36] = second compound 0.316 µM, first compound 0.03 µM
[37] = second compound 0.316 µM, first compound 0.0949 µM
[38] = second compound 0.316 µM, first compound 0.3 µM
[39] = second compound 1 µM, first compound 0.00949 µM
[40] = second compound 1 µM, first compound 0.03 µM
[41] = second compound 1 µM, first compound 0.0949 µM
[42] = second compound 1 µM, first compound 0.3 µM
[43] = second compound 3.16 µM, first compound 0.00949 µM
[44] = second compound 3.16 µM, first compound 0.03 µM
[45] = second compound 3.16 µM, first compound 0.0949 µM
[46] = second compound 3.16 µM, first compound 0.3 µM
[47] = second compound 10 µM, first compound 0.00949 µM
[48] = second compound 10 µM, first compound 0.03 µM
[49] = second compound 10 µM, first compound 0.0949 µM
[50] = second compound 10 µM, first compound 0.3 µM

CC1COCCN1c1cc(-c2ccnn2C)c2ccnc(-c3ccn[nH]3)c2n1 (stereo not given) + Cc1cncc(-c2nc(NCCc3c[nH]c4ccccc34)c3ncn(C(C)C)c3n2)c1 was tested, and the pIC50 (second compound 0.1 µM) was 6.38, the pIC50 (second compound 0.316 µM) was 6.60 and the pIC50 (second compound 1 µM) was 6.19. The pIC50 (second compound 3.16 µM) was 6.13, the pIC50 (second compound 10 µM) was > 8.50 and the viability, T/C (second compound 0.1 µM, first compound 0.00316 µM) was 79.6%. The viability, T/C (second compound 0.1 µM, first compound 0.01 µM) was 86.7%, the viability, T/C [1] was 70.2% and the viability, T/C [2] was 57.4%. For the same compound, the viability, T/C [3] was 58%, the viability, T/C [4] was 39.4% and the viability, T/C (second compound 0.316 µM, first compound 0.00316 µM) was 68%. For the same compound, the viability, T/C (second compound 0.316 µM, first compound 0.01 µM) was 90.1%, the viability, T/C [5] was 70.4% and the viability, T/C [6] was 62.2%. It also gave a viability, T/C [7] of 48%, a viability, T/C [8] of 35.1% and a viability, T/C (second compound 1 µM, first compound 0.00316 µM) of 89.8%. The viability, T/C (second compound 1 µM, first compound 0.01 µM) was 88%, the viability, T/C [9] was 75.3% and the viability, T/C [10] was 63%. For the same compound, the viability, T/C [11] was 62%, the viability, T/C [12] was 44.2% and the viability, T/C (second compound 3.16 µM, first compound 0.00316 µM) was 72.2%. For the same compound, the viability, T/C (second compound 3.16 µM, first compound 0.01 µM) was 85.2%, the viability, T/C [13] was 72.4% and the viability, T/C [14] was 70.2%. For the same compound, the viability, T/C [15] was 61.3%, the viability, T/C [16] was 46% and the viability, T/C (second compound 10 µM, first compound 0.00316 µM) was 30.2%. For the same compound, the viability, T/C (second compound 10 µM, first compound 0.01 µM) was 35%, the viability, T/C [17] was 36.9% and the viability, T/C [18] was 36.2%. For the same compound, the viability, T/C [19] was 35% and the viability, T/C [20] was 24.6%.

With CC1COCCN1c1cc(C2(S(C)(=N)=O)CC2)nc(-c2ccnc3[nH]ccc23)n1 (stereo not given) + Cc1cncc(-c2nc(NCCc3c[nH]c4ccccc34)c3ncn(C(C)C)c3n2)c1 the pIC50 (second compound 0.1 µM) was < 5.00, the pIC50 (second compound 0.316 µM) was < 5.00 and the pIC50 (second compound 1 µM) was < 5.00. For the same compound, the pIC50 (second compound 3.16 µM) was < 5.00, the pIC50 (second compound 10 µM) was > 7.50 and the viability, T/C [1] was 87.4%. The viability, T/C [2] was 103%, the viability, T/C [3] was 85.7% and the viability, T/C [4] was 88.1%. It also gave a viability, T/C [21] of 85.3%, a viability, T/C [22] of 67.8% and a viability, T/C [5] of 85.5%. It also gave a viability, T/C [6] of 103%, a viability, T/C [7] of 106% and a viability, T/C [8] of 103%. For the same compound, the viability, T/C [23] was 71.7%, the viability, T/C [24] was 52.6% and the viability, T/C [9] was 83.7%. It also gave a viability, T/C [10] of 87.7%, a viability, T/C [11] of 88.7% and a viability, T/C [12] of 84.5%. For the same compound, the viability, T/C [25] was 90.2%, the viability, T/C [26] was 62.7% and the viability, T/C [13] was 83%. The viability, T/C [14] was 93%, the viability, T/C [15] was 93.6% and the viability, T/C [16] was 71.1%. The viability, T/C [27] was 69.4%, the viability, T/C [28] was 59.3% and the viability, T/C [17] was 51.6%. For the same compound, the viability, T/C [18] was 46.9%, the viability, T/C [19] was 45.5% and the viability, T/C [20] was 40%. For the same compound, the viability, T/C [29] was 43.3% and the viability, T/C [30] was 28.9%.

For COc1ccc([C@@H](O)c2cc(-c3ncnc4cc(N5CCOCC5)ccc34)c(F)cc2Cl)nn1 + Cc1cncc(-c2nc(NCCc3c[nH]c4ccccc34)c3ncn(C(C)C)c3n2)c1, the pIC50 (second compound 0.1 µM) was 5.73, the pIC50 (second compound 0.316 µM) was 5.41 and the pIC50 (second compound 1 µM) was 5.54. The pIC50 (second compound 3.16 µM) was 5.30, the pIC50 (second compound 10 µM) was > 7.50 and the viability, T/C [1] was 82.7%. It also gave a viability, T/C [2] of 93.6%, a viability, T/C [3] of 83.2% and a viability, T/C [4] of 56.7%. The viability, T/C [21] was 47.9%, the viability, T/C [22] was 36.7% and the viability, T/C [5] was 87.3%. It also gave a viability, T/C [6] of 96.7%, a viability, T/C [7] of 75.1% and a viability, T/C [8] of 72.7%. For the same compound, the viability, T/C [23] was 52.2%, the viability, T/C [24] was 36.9% and the viability, T/C [9] was 91.3%. The viability, T/C [10] was 87.3%, the viability, T/C [11] was 93.3% and the viability, T/C [12] was 68.2%. The viability, T/C [25] was 50.8%, the viability, T/C [26] was 36.3% and the viability, T/C [13] was 81.6%. The viability, T/C [14] was 99%, the viability, T/C [15] was 81.9% and the viability, T/C [16] was 70.1%. The viability, T/C [27] was 55.8%, the viability, T/C [28] was 43.2% and the viability, T/C [17] was 45.5%. It also gave a viability, T/C [18] of 43.3%, a viability, T/C [19] of 41.5% and a viability, T/C [20] of 36%. For the same compound, the viability, T/C [29] was 22.1% and the viability, T/C [30] was 18.1%.

For Nc1ncn(C2CC(O)C(CO)S2)c(=O)n1 (stereo not given) + Cc1cncc(-c2nc(NCCc3c[nH]c4ccccc34)c3ncn(C(C)C)c3n2)c1, the pIC50 (second compound 0.1 µM) was < 6.52, the pIC50 (second compound 0.316 µM) was < 6.52 and the pIC50 (second compound 1 µM) was < 6.52. The pIC50 (second compound 3.16 µM) was < 6.52, the pIC50 (second compound 10 µM) was > 9.02 and the viability, T/C (second compound 0.1 µM, first compound 0.000949 µM) was 73.1%. For the same compound, the viability, T/C (second compound 0.1 µM, first compound 0.003 µM) was 93.7%, the viability, T/C [31] was 97.1% and the viability, T/C [32] was 90.9%. It also gave a viability, T/C [33] of 99.6%, a viability, T/C [34] of 98.5% and a viability, T/C (second compound 0.316 µM, first compound 0.000949 µM) of 94.2%. The viability, T/C (second compound 0.316 µM, first compound 0.003 µM) was 84.2%, the viability, T/C [35] was 81.8% and the viability, T/C [36] was 84.8%. It also gave a viability, T/C [37] of 101%, a viability, T/C [38] of 90.9% and a viability, T/C (second compound 1 µM, first compound 0.000949 µM) of 93.8%. The viability, T/C (second compound 1 µM, first compound 0.003 µM) was 104%, the viability, T/C [39] was 104% and the viability, T/C [40] was 98.7%. The viability, T/C [41] was 96.9%, the viability, T/C [42] was 90.5% and the viability, T/C (second compound 3.16 µM, first compound 0.000949 µM) was 94.1%. The viability, T/C (second compound 3.16 µM, first compound 0.003 µM) was 86.4%, the viability, T/C [43] was 86% and the viability, T/C [44] was 82.3%. It also gave a viability, T/C [45] of 74.2%, a viability, T/C [46] of 78.4% and a viability, T/C (second compound 10 µM, first compound 0.000949 µM) of 45.5%. It also gave a viability, T/C (second compound 10 µM, first compound 0.003 µM) of 44.8%, a viability, T/C [47] of 45.6% and a viability, T/C [48] of 39.8%. It also gave a viability, T/C [49] of 49.3% and a viability, T/C [50] of 43.9%.

O=C(C=Cn1cnc(-c2cc(C(F)(F)F)cc(C(F)(F)F)c2)n1)NNc1cnccn1 + Cc1cncc(-c2nc(NCCc3c[nH]c4ccccc34)c3ncn(C(C)C)c3n2)c1 gave a pIC50 (second compound 0.1 µM) of 6.04, a pIC50 (second compound 0.316 µM) of 5.63 and a pIC50 (second compound 1 µM) of 5.61. For the same compound, the pIC50 (second compound 3.16 µM) was < 5.52, the pIC50 (second compound 10 µM) was > 8.02 and the viability, T/C [31] was 83.3%. The viability, T/C [32] was 103%, the viability, T/C [33] was 87.1% and the viability, T/C [34] was 82.4%. It also gave a viability, T/C (second compound 0.1 µM, first compound 0.949 µM) of 48.6%, a viability, T/C (second compound 0.1 µM, first compound 3 µM) of 44.6% and a viability, T/C [35] of 88.2%. The viability, T/C [36] was 91.9%, the viability, T/C [37] was 88% and the viability, T/C [38] was 74.5%. It also gave a viability, T/C (second compound 0.316 µM, first compound 0.949 µM) of 65.9%, a viability, T/C (second compound 0.316 µM, first compound 3 µM) of 45.6% and a viability, T/C [39] of 105%. The viability, T/C [40] was 96.6%, the viability, T/C [41] was 97.7% and the viability, T/C [42] was 72.2%. The viability, T/C (second compound 1 µM, first compound 0.949 µM) was 62.8%, the viability, T/C (second compound 1 µM, first compound 3 µM) was 47% and the viability, T/C [43] was 97.7%. The viability, T/C [44] was 88.2%, the viability, T/C [45] was 97.5% and the viability, T/C [46] was 87.7%. For the same compound, the viability, T/C (second compound 3.16 µM, first compound 0.949 µM) was 67.7%, the viability, T/C (second compound 3.16 µM, first compound 3 µM) was 53.2% and the viability, T/C [47] was 44.4%. The viability, T/C [48] was 48.4%, the viability, T/C [49] was 55% and the viability, T/C [50] was 59.3%. It also gave a viability, T/C (second compound 10 µM, first compound 0.949 µM) of 50.1% and a viability, T/C (second compound 10 µM, first compound 3 µM) of 47.7%.
